Results published in PubChem BioAssay AID248 (DTP/NCI, 2004).
Several values for one entry are separate records, joined by “and”; a condition that tells them apart may be missing. Identical values can stand only once. Inconclusive results and toxic doses are left out. Rule as the data show it: active = T/C of 150% or more; inactive = T/C below 125%.

Test system: L1210 leukemia ip in BDF1 mice, survival T/C
Test: NCI In Vivo Anticancer Drug Screen. Data for tumor model L1210 Leukemia (intraperitoneal) in B6D2F1 (BDF1) mice
Conditions: endpoint: mean survival time, higher = longer survival
In short: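 Tumor cells were implanted, animals were treated, and survival was followed. The result divides the treated measurement by the vehicle-control measurement.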

[1] = dose: 50.0 mg/kg/injection, schedule: Q01DX009 (ip), vehicle: Klucel (hydroxypropylcellulose) (HPC)
[2] = dose: 100.0 mg/kg/injection, schedule: Q01DX009 (ip), vehicle: Klucel (hydroxypropylcellulose) (HPC)
[3] = dose: 100.0 mg/kg/injection, schedule: Q04DX002 (ip), vehicle: Klucel (hydroxypropylcellulose) (HPC)
[4] = dose: 200.0 mg/kg/injection, schedule: Q04DX002 (ip), vehicle: Klucel (hydroxypropylcellulose) (HPC)
[5] = dose: 400.0 mg/kg/injection, schedule: Q04DX002 (ip), vehicle: Klucel (hydroxypropylcellulose) (HPC)
[6] = dose: 6.25 mg/kg/injection, schedule: Q01DX009 (ip), vehicle: saline
[7] = dose: 12.5 mg/kg/injection, schedule: Q01DX009 (ip), vehicle: saline
[8] = dose: 25.0 mg/kg/injection, schedule: Q01DX009 (ip), vehicle: saline
[9] = dose: 100.0 mg/kg/injection, schedule: Q04DX003 (ip), vehicle: Klucel (hydroxypropylcellulose) (HPC)
[10] = dose: 200.0 mg/kg/injection, schedule: Q01DX009 (ip), vehicle: Klucel (hydroxypropylcellulose) (HPC)
[11] = dose: 200.0 mg/kg/injection, schedule: Q04DX003 (ip), vehicle: Klucel (hydroxypropylcellulose) (HPC)
[12] = dose: 400.0 mg/kg/injection, schedule: Q01DX009 (ip), vehicle: Klucel (hydroxypropylcellulose) (HPC)
[13] = dose: 400.0 mg/kg/injection, schedule: Q04DX003 (ip), vehicle: Klucel (hydroxypropylcellulose) (HPC)

Measured: T/C

Cc1ccc(/C=N/NC(=O)c2ccncc2)cc1
inactive: dose: 25.0 mg/kg/injection, schedule: Q01DX009 (ip), vehicle: Klucel (hydroxypropylcellulose) (HPC) 94 % of control | [1] 96 % of control | [2] 94 % of control and 96 % of control

O=[N+]([O-])c1ccc(N2N=NC3CC/C(=C\c4cccs4)C32N2CCOCC2)cc1 (stereo not drawn)
inactive: [3] 93 % of control | [4] 101 % of control | [5] 90 % of control

CC1CC(C)(C)[N+]2=C(CCCC2)O1 (stereo not drawn)
inactive: [6] 96 % of control | [7] 94 % of control | [8] 103 % of control

COC(=O)CCC(C)C1CCC2C3CCC4CC(OC(C)=O)CCC4(C)C3CCC12C (stereo not drawn)
inactive: dose: 100.0 mg/kg/injection, schedule: Q01DX001 (ip), vehicle: saline with Tween-80 95 % of control | dose: 200.0 mg/kg/injection, schedule: Q01DX001 (ip), vehicle: saline with Tween-80 95 % of control | dose: 400.0 mg/kg/injection, schedule: Q01DX001 (ip), vehicle: saline with Tween-80 89 % of control

CC(C)CCc1c(N)nc(NCCCc2ccccc2)nc1N
inactive: dose: 100.0 mg/kg/injection, schedule: Q01DX001 (ip), vehicle: Klucel (hydroxypropylcellulose) (HPC) 91 % of control | dose: 200.0 mg/kg/injection, schedule: Q01DX001 (ip), vehicle: Klucel (hydroxypropylcellulose) (HPC) 103 % of control

O=C(N/N=C/c1ccc2c(c1)OCO2)c1ccccc1
inactive: [2] 93 % of control | [9] 101 % of control | [10] 96 % of control | [11] 104 % of control | [12] 86 % of control | [13] 98 % of control

CCCCc1[nH]ccc2c(C)c3nc4ccccc4c3cc12
inactive: dose: 50.0 mg/kg/injection, schedule: Q01DX001 (ip), vehicle: saline 96 % of control | dose: 100.0 mg/kg/injection, schedule: Q01DX001 (ip), vehicle: saline 97 % of control | dose: 200.0 mg/kg/injection, schedule: Q01DX001 (ip), vehicle: saline 96 % of control | dose: 400.0 mg/kg/injection, schedule: Q01DX001 (ip), vehicle: saline 97 % of control

CC(O)C(O)CC(/C=N/NC(=O)c1ccccc1)=N/NC(=O)c1ccccc1 (stereo not drawn)
inactive: [9] 107 % of control | [11] 115 % of control | [13] 109 % of control

O=S(=O)(NS(=O)(=O)c1ccc(Cl)cc1)c1ccc(Cl)cc1
inactive: [1] 93 % of control | [2] 96 % of control | [9] 88 % of control | [10] 104 % of control | [11] 87 % of control

CCC(=O)OC1CC2C3CCC4=CC(=O)CCC4(C)C3CCC2(C)C1OC(=O)CC (stereo not drawn)
inactive: [2] 98 % of control | [9] 95 % of control | [10] 98 % of control | [11] 95 % of control | [12] 97 % of control | [13] 101 % of control

Cc1csc(C)n1
inactive: dose: 100.0 mg/kg/injection, schedule: Q01DX009 (ip), vehicle: saline with Tween-80 95 % of control | dose: 100.0 mg/kg/injection, schedule: Q04DX003 (ip), vehicle: saline with Tween-80 103 % of control | dose: 200.0 mg/kg/injection, schedule: Q01DX009 (ip), vehicle: saline with Tween-80 95 % of control | dose: 200.0 mg/kg/injection, schedule: Q04DX003 (ip), vehicle: saline with Tween-80 107 % of control | dose: 400.0 mg/kg/injection, schedule: Q04DX003 (ip), vehicle: saline with Tween-80 107 % of control

c1ccc(-c2nc3ccccc3c3ccccc23)cc1
inactive: [9] 101 % of control | [11] 103 % of control | [13] 106 % of control

O=C(O)CC(NC(=O)CP(=O)(O)O)C(=O)O (stereo not drawn)
inactive: dose: 0.39 mg/kg/injection, schedule: Q01DX009 (ip), vehicle: saline 104 % of control | dose: 0.78 mg/kg/injection, schedule: Q01DX009 (ip), vehicle: saline 96 % of control | dose: 1.56 mg/kg/injection, schedule: Q01DX009 (ip), vehicle: saline 100 % of control | dose: 3.12 mg/kg/injection, schedule: Q01DX009 (ip), vehicle: saline 100 % of control | [6] 100 % of control | [7] 98 % of control | [8] 93 % of control and 94 % of control | dose: 50.0 mg/kg/injection, schedule: Q01DX009 (ip), vehicle: saline 96 % of control and 98 % of control | dose: 100.0 mg/kg/injection, schedule: Q01DX009 (ip), vehicle: saline 104 % of control and 122 % of control | dose: 200.0 mg/kg/injection, schedule: Q01DX009 (ip), vehicle: saline 117 % of control and 122 % of control | dose: 225.0 mg/kg/injection, schedule: Q01DX009 (ip), vehicle: saline 113 % of control | dose: 240.0 mg/kg/injection, schedule: Q04DX003 (ip), vehicle: saline 113 % of control | dose: 250.0 mg/kg/injection, schedule: Q01DX009 (ip), vehicle: saline 109 % of control | dose: 275.0 mg/kg/injection, schedule: Q01DX009 (ip), vehicle: saline 109 % of control | dose: 343.0 mg/kg/injection, schedule: Q04DX003 (ip), vehicle: saline 117 % of control | dose: 400.0 mg/kg/injection, schedule: Q01DX009 (ip), vehicle: saline 89 % of control | dose: 490.0 mg/kg/injection, schedule: Q04DX003 (ip), vehicle: saline 113 % of control | dose: 700.0 mg/kg/injection, schedule: Q04DX003 (ip), vehicle: saline 119 % of control

COC(=O)c1ccncc1
inactive: dose: 100.0 mg/kg/injection, schedule: Q04DX003 (ip), vehicle: saline 101 % of control | dose: 200.0 mg/kg/injection, schedule: Q04DX003 (ip), vehicle: saline 98 % of control | dose: 400.0 mg/kg/injection, schedule: Q04DX003 (ip), vehicle: saline 104 % of control

O=C(COc1ccc(F)cc1F)Oc1ccc([N+](=O)[O-])cc1
inactive: [3] 101 % of control | [4] 104 % of control | [5] 97 % of control

c1ccc(-c2ccccc2SSc2ccccc2-c2ccccc2)cc1
inactive: dose: 100.0 mg/kg/injection, schedule: Q01DX001 (ip), vehicle: carboxymethylcellulose (CMC) 96 % of control | dose: 200.0 mg/kg/injection, schedule: Q01DX001 (ip), vehicle: carboxymethylcellulose (CMC) 105 % of control | dose: 400.0 mg/kg/injection, schedule: Q01DX001 (ip), vehicle: carboxymethylcellulose (CMC) 91 % of control

CC(C)CCCC(C)C1CCC2C3CC=C4CC(OC(=O)Nc5ccc(S(=O)(=O)N(C)C)cc5)CCC4(C)C3CCC12C (stereo not drawn)
inactive: dose: 100.0 mg/kg/injection, schedule: Q01DX001 (sc), vehicle: steriod suspending solution 103 % of control | dose: 200.0 mg/kg/injection, schedule: Q01DX001 (sc), vehicle: steriod suspending solution 103 % of control | dose: 400.0 mg/kg/injection, schedule: Q01DX001 (sc), vehicle: steriod suspending solution 103 % of control

COc1cc(CC2COCC2Cc2ccc3c(c2)OCO3)cc(OC)c1OC (stereo not drawn)
inactive: dose: 25.0 mg/kg/injection, schedule: Q01DX009 (ip), vehicle: acetone 110 % of control | dose: 50.0 mg/kg/injection, schedule: Q01DX009 (ip), vehicle: acetone 101 % of control | dose: 100.0 mg/kg/injection, schedule: Q01DX009 (ip), vehicle: acetone 103 % of control

Cc1ccc2c(c1)C(=O)CCS2
inactive: [2] 107 % of control | [10] 100 % of control | [12] 102 % of control

ClC(Cl)C(Cl)(Cl)C(Cl)(Cl)Cl
inactive: [1] 96 % of control | [2] 94 % of control | [9] 95 % of control | [10] 98 % of control | [11] 108 % of control

COc1ccc(C(=O)c2ccccc2)c(O)c1
inactive: [9] 101 % of control | [11] 97 % of control | [13] 90 % of control

COc1ccc(CN(C)CCN(C)CCN(C)Cc2ccc(OC)cc2)cc1
inactive: dose: 25.0 mg/kg/injection, schedule: Q01DX009 (ip), vehicle: water 105 % of control | dose: 50.0 mg/kg/injection, schedule: Q01DX009 (ip), vehicle: water 99 % of control | dose: 100.0 mg/kg/injection, schedule: Q01DX009 (ip), vehicle: water 101 % of control

OCn1nnc2ccccc21
inactive: dose: 100.0 mg/kg/injection, schedule: Q04DX002 (ip), vehicle: saline with Tween-80 103 % of control | dose: 200.0 mg/kg/injection, schedule: Q04DX002 (ip), vehicle: saline with Tween-80 90 % of control | dose: 400.0 mg/kg/injection, schedule: Q04DX002 (ip), vehicle: saline with Tween-80 106 % of control

CC(=O)OC1CC(n2cc(C)c(=O)[nH]c2=O)OC1COC(c1ccccc1)(c1ccccc1)c1ccccc1 (stereo not drawn)
inactive: dose: 100.0 mg/kg/injection, schedule: Q01DX005 (ip), vehicle: saline 109 % of control | dose: 200.0 mg/kg/injection, schedule: Q01DX005 (ip), vehicle: saline 98 % of control
